From patent publication US20050043331A1, “Substituted 3-(2,5-disubstituted)pyridyl-4-aryl pyrroles for treating inflammatory diseases” (priority 2002, published 2005)

Test system: TNF-α
Experiment: In-vitro whole cell assay for TNF-α inhibition (LPS-stimulated PBMC, ELISA)
Format: cell-based
Conditions: TNF-α by ELISA
Experimental: Freshly obtained venous blood was anticoagulated with heparin, diluted with an equal volume of phosphate buffered saline (“PBS”) and placed in a sterile tube or other container. Aliquots (30 mL) of this mixture were transferred to centrifuge tubes, which were underlaid with Ficoll-Hypaque (15 mL). The prepared tubes were centrifuged at 400×g, without braking, for 30 min at room temperature. Approximately ½ to ⅔ of the platelet layer above the mononuclear cell band was removed with a pipette. The majority of the mononuclear cell layer was carefully removed using a pipette and these PBMC's were diluted with PBS and spun at 600×g for 15 min. The resulting PBMC's were washed with another portion of PBS and spun at 400×g for 10 min at room temperature. The recovered pellets were diluted in low endotoxin RPMI/1% FCS culture medium, and gave a cell concentration of 0.5-2.0×10^6 PMBC/ mL. A small volume of the suspension was removed for counting on a hemocytometer and the remaining preparation was centrifuged at 200×g for 15 min at room temperature. The recovered pelleted PMBC's were resuspended in RPMI/1% FCS to a concentration of 1.67×10^6/mL.
To run the assay, the PBMC suspension (180 μL) was transferred to duplicate wells of a 96-well flat-bottom microtiter plate and incubated for 1 h at 37° C. A solution of test compound (10 μL: prepared at 20× the desired final concentration) was added to each well and the plate was incubated for 1 h at 37° C. A solution (10 μL) of LPS in RPMI/1% FCS (200 ng/mL) was added and the wells were incubated overnight at 37° C. The supernate (100 μL) was removed from each well and diluted with RPMI/1% FCS (400 μL). The samples were analyzed for TNF-α using a commercial ELISA kit (Genzyme).

Compound	IC50 [nM]
COC(=O)CCn1c(C#CCCO)c(-c2ccncc2)c(-c2ccc(F)cc2)c1C(=O)OC [Cpd 150]	5280
CC(=O)c1c(-c2ccc(F)cc2)c(-c2ccncc2)cn1C [Cpd 39, 1-[3-(4-Fluorophenyl)-1-methyl-4-(4-pyridinyl)-1H-pyrrol-2-yl]ethanone]	597
COC(=O)c1c(-c2ccc(F)cc2)c(-c2ccncc2)c(NC(C)=O)n1C [Cpd 142]	1490
COC(=O)c1c(-c2ccc(F)cc2)c(-c2ccncc2)c(NCCNC(=O)OC(C)(C)C)n1C [Cpd 132]	1640
CON(C)C(=O)c1c(-c2ccc(F)cc2)c(-c2ccncc2)cn1C [Cpd 37, 3-(4-Fluorophenyl)-N-methoxy-N,1-dimethyl-4-(4-pyridinyl)-1H-pyrrole-2-carboxamide]	5840
COC(=O)c1c(-c2ccc(F)cc2)c(-c2ccncc2)c(N2CCN(C(C)C)CC2)n1C [Cpd 126]	1980
COC(=O)c1c(-c2ccc(F)cc2)c(-c2ccncc2)c(NC2CCN(Cc3ccccc3)CC2)n1C [Cpd 120]	1310
CC(O)c1c(-c2ccc(F)cc2)c(-c2ccncc2)cn1C (stereo not drawn) [Cpd 40, 3-(4-Fluorophenyl)-[…], 1-dimethyl-4-(4-pyridinyl)-1H-pyrrole-2-methanol]	1450
COC(=O)c1c(-c2ccc(F)cc2)c(-c2ccncc2)c(NCCN2CCCC2)n1C [Cpd 118]	1390
COC(=O)c1c(-c2ccncc2)c(-c2ccc(F)cc2)c(N(C)CCN2CCOCC2)n1C [Cpd 164]	3510
COC(=O)c1c(-c2ccc(F)cc2)c(-c2ccncc2)c(NCCNC(C)=O)n1C [Cpd 135]	1690
CCCN1CCN(c2c(-c3ccncc3)c(-c3ccc(F)cc3)c(C(=O)OC)n2C)CC1 [Cpd 127]	901
CCCCNCc1c(-c2ccncc2)c(-c2ccc(F)cc2)cn1C [Cpd 123]	1080
COC(=O)c1c(-c2ccc(F)cc2)c(-c2ccncc2)cn1CCO [Cpd 165]	692
Cn1c(C(O)c2ccccc2)c(-c2ccc(F)cc2)c(-c2ccncc2)c1N1CCNCC1 (stereo not drawn) [Cpd 117]	660
COC(=O)c1c(-c2ccc(F)cc2)c(-c2ccncc2)c(Nc2ccc3c(c2)N(C(C)=O)CC3)n1C [Cpd 166]	650
COC(=O)c1c(-c2ccc(F)cc2)c(-c2ccncc2)c(N2CCC(NC(=O)OC(C)(C)C)C2)n1C (stereo not drawn) [Cpd 110]	1660

Results, then the molecule that gave them:

IC50 [nM]	Compound
29	COC(=O)CCCn1c(NCCN2CCOCC2)c(-c2ccncc2)c(-c2ccc(F)cc2)c1C(=O)OC [Cpd 23a]
573	COC(=O)c1c(-c2ccc(F)cc2)c(-c2ccncc2)c(N2CCN(CC3CCCCC3)CC2)n1C [Cpd 130]
47	N#Cc1[nH]cc(-c2ccncc2)c1-c1ccc(F)cc1 [Cpd 158]
589	CCCn1c(NCCN2CCOCC2)c(-c2ccncc2)c(-c2ccc(F)cc2)c1C(=O)OC [Cpd 153]
160	O=C1OCCn2cc(-c3ccncc3)c(-c3ccc(F)cc3)c21 [Cpd 46, 8-(4-Fluorophenyl)-3,4-dihydro-7-(4-pyridinyl)-1H-pyrrolo[2,1-c][1,4]oxazin-1-one]
145	COC(=O)c1c(-c2ccc(F)cc2)c(-c2ccncc2)c(NCCc2ccncc2)n1C [Cpd 154]
186	CCOC(=O)c1c(-c2ccc(F)cc2)c(-c2ccncc2)c(CCCO)n1C [Cpd 17, 3-(4-Fluorophenyl)-5-(3-hydroxypropyl)-1-methyl-4-(4-pyridinyl)-1H-pyrrole-2-carboxylic acid ethyl ester]
351	Cn1c(C#N)c(-c2ccc(F)cc2)c(-c2ccncc2)c1NCCN1CCOCC1 [Cpd 171]
183	COC(=O)c1c(-c2ccc(F)cc2)c(-c2ccncc2)c(N(C)CCN2CCSCC2)n1C [Cpd 162]
21	COC(=O)c1c(-c2ccc(F)cc2)c(-c2ccncc2)c(Nc2cccc(NC(C)=O)c2)n1C [Cpd 174]
